From the CheMixHub ionic liquid set
± gives the uncertainty stated by the source.

Experiment: xn = mol fraction of the nth substance listed
Conditions: 101.3 kPa

CC[N+](CC)(CC)CC.[Cl-] + NCCCO
viscosity [mPa·s]
Conditions	293.15 K	298.15 K	303.15 K	308.15 K	313.15 K	318.15 K	323.15 K	328.15 K	333.15 K
x2 = 0.8	55.2 ± 2.7	42.4 ± 2.6	32.9 ± 2.3	26.2 ± 2.2	21.2 ± 2.1	17.4 ± 2.1	14.4 ± 2.1	12.1 ± 2	10.3 ± 2
x2 = 0.8571	46.6 ± 2.7	35.8 ± 2.4	27.9 ± 2.3	22.3 ± 2.2	18 ± 2.1	14.8 ± 2.1	12.3 ± 2.1	10.4 ± 2	8.8 ± 2
x2 = 0.8889	43.4 ± 2.4	33.4 ± 2.1	26.1 ± 2.1	21 ± 2.1	16.9 ± 2	14 ± 2	11.6 ± 2	9.8 ± 2	8.3 ± 2

CCCC[N+](C)(CCCC)CCCC.[Cl-] + N[C@@H](Cc1ccccc1)C(=O)O + O
viscosity [mPa·s]
Conditions	293.15 K	298.15 K	303.15 K	308.15 K	313.15 K
x2 = 0, x1 = 0.00144	–	–	–	–	0.7 ± 0.1
x2 = 0.0003636, x1 = 0.00072	0.99 ± 0.1	0.89 ± 0.1	0.76 ± 0.1	0.67 ± 0.1	–
x2 = 0.0003667, x1 = 0.001439	0.98 ± 0.1	0.9 ± 0.1	0.78 ± 0.1	0.79 ± 0.1	0.71 ± 0.1
x2 = 0.000726, x1 = 0.0007198	1 ± 0.1	0.9 ± 0.1	0.77 ± 0.1	0.68 ± 0.1	–
x2 = 0.0007319, x1 = 0.001438	0.99 ± 0.1	0.91 ± 0.1	0.8 ± 0.1	0.8 ± 0.1	0.72 ± 0.1
x2 = 0.00109, x1 = 0.0007195	1.02 ± 0.1	0.92 ± 0.1	0.78 ± 0.1	0.69 ± 0.1	–
x2 = 0.001099, x1 = 0.001438	1.01 ± 0.1	0.92 ± 0.1	0.81 ± 0.1	0.81 ± 0.1	0.74 ± 0.1
x2 = 0.001452, x1 = 0.0007192	1.03 ± 0.1	0.93 ± 0.1	0.79 ± 0.1	0.71 ± 0.1	–
x2 = 0.001466, x1 = 0.001437	1.02 ± 0.1	0.94 ± 0.1	0.82 ± 0.1	0.83 ± 0.1	0.75 ± 0.1
x2 = 0.001813, x1 = 0.000719	1.04 ± 0.1	0.94 ± 0.1	0.81 ± 0.1	0.72 ± 0.1	–
x2 = 0.001828, x1 = 0.001437	1.03 ± 0.1	0.95 ± 0.1	0.84 ± 0.1	0.84 ± 0.1	0.76 ± 0.1
x2 = 0.002175, x1 = 0.0007187	1.06 ± 0.1	0.96 ± 0.1	0.82 ± 0.1	0.73 ± 0.1	–
x2 = 0.002194, x1 = 0.001436	1.05 ± 0.1	0.96 ± 0.1	0.85 ± 0.1	0.85 ± 0.1	0.78 ± 0.1
x2 = 0.002538, x1 = 0.0007185	1.07 ± 0.1	0.97 ± 0.1	0.83 ± 0.1	0.75 ± 0.1	–
x2 = 0.002562, x1 = 0.001436	1.06 ± 0.1	0.98 ± 0.1	0.86 ± 0.1	0.87 ± 0.1	0.79 ± 0.1
